In ChEMBL document CHEMBL5346878, “SAR study of piperidine derivatives as inhibitors of 1,4-dihydroxy-2-naphthoate isoprenyltransferase (MenA) from Mycobacterium tuberculosis” (Eur J Med Chem, 2023):
In brackets after ≈: the same amount, converted by molar mass. Activity calls are given as the source filed them. The rule behind the calls is not given here.

What was measured:
[1] = biological target: T1, 1,4-dihydroxy-2-naphthoate octaprenyltransferase (Mycobacterium tuberculosis, UniProt P9WIP3); test: Displacement of [3H]FPP from Mycobacterium tuberculosis mc2 6230 membrane protein MenA incubated for 30 mins by liquid scintillation spectrometry; type: cell membranes
T1 sequence (P9WIP3 whole entry): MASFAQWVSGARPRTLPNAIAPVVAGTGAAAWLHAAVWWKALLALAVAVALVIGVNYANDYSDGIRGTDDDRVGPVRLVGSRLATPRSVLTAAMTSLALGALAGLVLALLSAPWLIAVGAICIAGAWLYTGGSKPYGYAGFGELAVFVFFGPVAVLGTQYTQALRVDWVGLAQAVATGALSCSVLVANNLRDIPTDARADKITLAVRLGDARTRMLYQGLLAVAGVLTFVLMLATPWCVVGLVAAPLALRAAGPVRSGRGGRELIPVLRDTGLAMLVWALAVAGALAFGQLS

[2] = test system: Mycobacterium tuberculosis; test: Antibacterial activity against Mycobacterium tuberculosis mc2 6230 assessed as bacterial growth inhibition incubated for 5 days by absorbance based assay; type: functional, organism-based; conditions: mc2 6230, 120 h; for GI50: time 5 day
[3] = test system: Mycobacterium tuberculosis; test: Displacement of 14C-SAM from Mycobacterium tuberculosis membrane MenG assessed as reduction in MK8 synthesis at 12.5 uM incubated for 1 hr by liquid scintillation counting method; type: cell membranes
[4] = test system: Mycobacterium tuberculosis; test: Bactericidal activity against Mycobacterium tuberculosis H37RvLP (ATCC 25618) at 50 to 100 uM; type: functional, organism-based; conditions: dose 50-100 µM
[5] = test system: Mycobacterium tuberculosis; test: Synergistic bactericidal activity against Mycobacterium tuberculosis H37RvLP (ATCC 25618) incubated for 14 days in presence of CPZ relative to control; type: functional; conditions: time 14 day
[6] = test system: Mycobacterium tuberculosis; test: Synergistic bactericidal activity against Mycobacterium tuberculosis H37RvLP (ATCC 25618) assessed as fold increase in activity upto 100 uM in presence of CPZ; type: functional
[7] = test system: Mycobacterium tuberculosis; test: Synergistic bactericidal activity against Mycobacterium tuberculosis H37RvLP (ATCC 25618) at 25 uM in presence of Q203; type: functional, organism-based
[8] = test system: Mycobacterium tuberculosis; test: Synergistic bactericidal activity against Mycobacterium tuberculosis H37RvLP (ATCC 25618) at 25 uM in presence of IMP; type: functional, organism-based
[9] = test system: Mycobacterium tuberculosis; test: Synergistic bactericidal activity against Mycobacterium tuberculosis H37RvLP (ATCC 25618) assessed as fold increase in activity at <12.5 uM in presence of IMP; type: functional
[10] = test system: Mycobacterium tuberculosis; test: Antibacterial activity against Mycobacterium tuberculosis H37Rv (ATCC 27294) assessed as bacterial growth inhibition incubated for 7 days by microdilution alamarBlue assay; type: functional; conditions: 168 h, time 7 day
[11] = test system: Mycobacterium tuberculosis; test: Antibacterial activity against Mycobacterium tuberculosis assessed as bacterial growth inhibition; type: functional

**Q.** Which IC50 ([1]; read-out: IC50) does the source give for `CCCN(C)c1ccc(CN2CCC(COc3ccc(Cl)cc3)CC2)cc1` here?
**A.** 22 µM

**Q.** What about the GI50 [2] of the same molecule?
**A.** 10 µM

**Q.** What about the inhibition [3] of the same molecule?
**A.** inactive

**Q.** What about the Activity [4] of the same molecule?
**A.** Active

**Q.** What about the “inhibition (INH)” value [5] of the same molecule?
**A.** 100%

**Q.** And the “fold change (FC)” value [6]?
**A.** 1

**Q.** And the Activity [7]?
**A.** Active

**Q.** And the Activity [8]?
**A.** Active

**Q.** `CCCN(C)c1ccc(CN2CCC(COc3cccc(Oc4ccccc4)c3)CC2)cc1` was tested. Which IC50 ([1]; read-out: IC50) did it give?
**A.** 13 µM

**Q.** And the GI50 [2]?
**A.** 8 µM

**Q.** And the inhibition [3]?
**A.** inactive

**Q.** And the Activity [4]?
**A.** Active

**Q.** What about the “inhibition (INH)” value [5] of the same molecule?
**A.** 100%

**Q.** And the “fold change (FC)” value [6]?
**A.** 1

**Q.** And the “fold change (FC)” value [9]?
**A.** >3

**Q.** For `CCCN(C)c1ccc(CN2CCC(COc3noc4ccccc34)CC2)cc1`, which inhibition [3] is on record?
**A.** inactive

**Q.** Which inhibition [3] does the source give for `COc1ccc(-c2cc(NC(=O)c3ccc(Cl)cc3F)ccc2OC)cc1` here?
**A.** Active

**Q.** And the MIC90 [10]?
**A.** 4.8 µg/mL (≈ 12.4 µM)

**Q.** With `CCCN(C)c1ccc(CN2[C@@H]3CC[C@H]2CC(Oc2cccc(Oc4ccccc4)c2)C3)cc1` (stereo partly specified) as the molecule, how does the IC50 ([1]; read-out: IC50) read?
**A.** 27 µM

**Q.** What about the GI50 [2] of the same molecule?
**A.** 17 µM

**Q.** Which IC50 ([1]; read-out: IC50) does the source give for `CCCN(C)c1ccc(CN2CCC(COC3[C@H]4C[C@@H]5C[C@@H](C[C@H]3C5)C4)CC2)cc1` (stereo partly specified) here?
**A.** 23 µM

**Q.** And the GI50 [2]?
**A.** 6 µM

**Q.** For `CCCN(C)c1ccc(CN2CCC(COc3ccccc3)CC2)cc1`, which IC50 ([1]; read-out: IC50) is on record?
**A.** 64 µM

**Q.** What about the GI50 [2] of the same molecule?
**A.** 27 µM

**Q.** Which IC50 ([1]; read-out: IC50) does the source give for `CCCN(C)c1ccc(CN2CCC(COc3ccccc3Cl)CC2)cc1` here?
**A.** 31 µM

**Q.** What about the GI50 [2] of the same molecule?
**A.** 39 µM

**Q.** Which results are given for `CCCN(C)c1ccc(CN2CCC(COc3ccc(OC)cc3)CC2)cc1`?
**A.** GI50 [2]: 18 µM; inhibition [3]: inactive

**Q.** For `CCCN(C)c1ccc(CN2CCC(COc3cccc(Br)c3)CC2)cc1`, which IC50 ([1]; read-out: IC50) is on record?
**A.** 12 µM

**Q.** And the GI50 [2]?
**A.** 14 µM

**Q.** What about the inhibition [3] of the same molecule?
**A.** inactive

**Q.** Which IC50 ([1]; read-out: IC50) does the source give for `CCCN(C)c1ccc(CN2CCC(COc3cc(=O)n(C)c4ccccc34)CC2)cc1` here?
**A.** 102 µM

**Q.** What about the GI50 [2] of the same molecule?
**A.** 11 µM

**Q.** With `CCCN(C)c1ccc(CN2CCC(COc3ccccc3F)CC2)cc1` as the molecule, how does the IC50 ([1]; read-out: IC50) read?
**A.** 18 µM

**Q.** And the GI50 [2]?
**A.** 35 µM

**Q.** With `CCCN(C)c1ccc(CN2CCC3(CC2)CC(Oc2cccc(Oc4ccccc4)c2)CO3)cc1` (stereo unspecified) as the molecule, how does the GI50 [2] read?
**A.** 9 µM

**Q.** What does the source list for `CCCN(C)c1ccc(CN2CCC(COc3c(F)cccc3F)CC2)cc1`?
**A.** IC50 ([1]; read-out: IC50): 25 µM; GI50 [2]: 28 µM

**Q.** How did the IC50 [1] turn out when `CCCN(C)c1ccc(CN2CCC(COc3cccc(C(=O)N4CCOCC4)c3)CC2)cc1` was run?
**A.** Not Active

**Q.** What about the GI50 [2] of the same molecule?
**A.** > 215 µM

**Q.** With `CCCN(C)c1ccc(CN2CCC(COc3cccc(Cc4ccc(Cl)cc4)c3)CC2)cc1` as the molecule, how does the IC50 ([1]; read-out: IC50) read?
**A.** 55 µM

**Q.** What about the GI50 [2] of the same molecule?
**A.** > 226 µM

**Q.** What does the source list for `CCCN(C)c1ccc(CN2CCC(COc3ccc(F)cc3)CC2)cc1`?
**A.** IC50 ([1]; read-out: IC50): 33 µM; GI50 [2]: 14 µM

**Q.** Which results are given for `CCCN(C)c1ccc(CN2CCC(COc3cccc(C(=O)c4ccc(Cl)cc4)c3)CC2)cc1`?
**A.** IC50 ([1]; read-out: IC50): 14 µM; GI50 [2]: 8 µM

**Q.** What does the source list for `CCCN(C)c1ccc(CN2CCC(COc3nc4ccc(F)cc4s3)CC2)cc1`?
**A.** IC50 ([1]; read-out: IC50): 31 µM; IC50 [2]: 11 µM

**Q.** For `CCCN(C)c1ccc(CN2CCC(COc3cccc(Nc4ccccc4C)c3)CC2)cc1`, which IC50 ([1]; read-out: IC50) is on record?
**A.** 22 µM

**Q.** And the GI50 [2]?
**A.** 16 µM

**Q.** What about the inhibition [3] of the same molecule?
**A.** inactive

**Q.** For `COc1ccc2ccc(OCCCCCCCCNCCc3ccc(F)cc3)cc2c1`, which MIC [11] is on record?
**A.** < 14.2 µM

**Q.** How did the IC50 ([1]; read-out: IC50) turn out when `CCCN(C)c1ccc(CN2CCC(COc3ccc4ccccc4c3)CC2)cc1` was run?
**A.** 21 µM

**Q.** And the GI50 [2]?
**A.** 7 µM

**Q.** Which results are given for `c1ccc(Oc2cccc(OCC3CCN(Cc4ccc(N5CCOCC5)cc4)CC3)c2)cc1`?
**A.** GI50 [2]: 21 µM; inhibition [3]: inactive

**Q.** For `CCCN(C)c1ccc(CN2CCC(COc3ccc(Cl)cc3Cl)CC2)cc1`, which GI50 [2] is on record?
**A.** 13 µM

**Q.** With `CCCN(C)c1ccc(CN2CCC(CSc3ccccc3C(=O)OC)CC2)cc1` as the molecule, how does the inhibition [3] read?
**A.** inactive

**Q.** How did the IC50 ([1]; read-out: IC50) turn out when `CCCN(C)c1ccc(CN2CCC3(CC2)CC(Oc2ccc(Cl)cc2)CO3)cc1` (stereo unspecified) was run?
**A.** > 50 µM

**Q.** And the GI50 [2]?
**A.** 25 µM

**Q.** Which results are given for `CCCN(C)c1ccc(CN2CCC(COc3ccc(C)cn3)CC2)cc1`?
**A.** IC50 ([1]; read-out: IC50): > 50 µM; GI50 [2]: 31 µM

**Q.** What does the source list for `CCCN(C)c1ccc(CN2CCC(COc3ccc(Br)cc3)CC2)cc1`?
**A.** IC50 ([1]; read-out: IC50): 12 µM; GI50 [2]: 11 µM

**Q.** Which IC50 ([1]; read-out: IC50) does the source give for `CCCN(C)c1ccc(CN2C[C@@H]3C[C@H]2CN3Cc2ccc(N3CCOCC3)cc2)cc1` here?
**A.** > 50 µM

**Q.** And the GI50 [2]?
**A.** 149 µM

**Q.** Which IC50 ([1]; read-out: IC50) does the source give for `CCCN(C)c1ccc(CN2CCCC(Oc3cccc(Oc4ccccc4)c3)C2)cc1` (stereo unspecified) here?
**A.** 24 µM

**Q.** What about the GI50 [2] of the same molecule?
**A.** 37 µM

**Q.** `C=CCN(C)CCCCCCCCOc1ccc2ccc(OC)cc2c1` was tested. Which MIC [11] did it give?
**A.** 8.4 µM (≈ 2.99 µg/mL)

**Q.** With `CCCN(C)c1ccc(CN2CCC(CSc3ccccc3)CC2)cc1` as the molecule, how does the IC50 ([1]; read-out: IC50) read?
**A.** 18 µM

**Q.** Which MIC [11] does the source give for `COc1ccc2ccc(OCCCCCCCCN3CCCCC3)cc2c1` here?
**A.** 8.1 µM (≈ 2.99 µg/mL)
